The target of this experiment is rat TRPV1 (Rattus norvegicus (Rat), UniProt O35433). The following applies: read-out: Rat IC50.

Each structure is given as a SMILES string. Structures can show the parent of a compound that is named as a salt. Where only a bound is given, the exact number is not on record here.

Chain of rat TRPV1 (O35433 whole entry): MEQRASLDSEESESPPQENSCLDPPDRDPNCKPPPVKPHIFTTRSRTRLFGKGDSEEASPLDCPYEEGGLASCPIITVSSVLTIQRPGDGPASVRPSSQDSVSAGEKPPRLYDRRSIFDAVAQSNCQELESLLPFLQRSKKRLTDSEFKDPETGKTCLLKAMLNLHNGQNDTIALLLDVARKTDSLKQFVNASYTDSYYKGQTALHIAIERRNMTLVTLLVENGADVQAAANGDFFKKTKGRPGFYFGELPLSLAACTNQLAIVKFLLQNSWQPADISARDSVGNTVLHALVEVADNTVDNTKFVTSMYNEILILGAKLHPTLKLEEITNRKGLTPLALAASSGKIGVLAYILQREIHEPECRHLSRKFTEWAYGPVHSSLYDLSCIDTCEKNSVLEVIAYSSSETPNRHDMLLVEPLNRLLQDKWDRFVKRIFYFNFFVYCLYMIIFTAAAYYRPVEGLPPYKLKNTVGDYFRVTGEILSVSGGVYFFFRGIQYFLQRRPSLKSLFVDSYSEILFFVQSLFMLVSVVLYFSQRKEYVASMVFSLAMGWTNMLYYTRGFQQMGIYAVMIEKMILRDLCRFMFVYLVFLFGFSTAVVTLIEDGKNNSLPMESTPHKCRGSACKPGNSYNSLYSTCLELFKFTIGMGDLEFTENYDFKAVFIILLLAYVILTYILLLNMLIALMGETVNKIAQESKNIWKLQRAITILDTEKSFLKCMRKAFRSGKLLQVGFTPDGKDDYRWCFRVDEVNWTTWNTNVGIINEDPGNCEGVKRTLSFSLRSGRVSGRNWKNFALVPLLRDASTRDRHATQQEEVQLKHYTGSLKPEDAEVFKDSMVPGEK

One may read the IC50 as the midpoint of a concentration-inhibition curve. With `CC(C)c1nc2c(c(NCCc3ccc(Cl)c(Cl)c3)n1)CCN(c1ncccc1C(F)(F)F)CC2` [Example 108, [2-(3,4-Dichloro-phenyl)-ethyl]-[2-isopropyl-7-(3-trifluoromethyl-pyridin-2-yl)-6,7,8,9-tetrahydro-5H-pyrimido[4,5-d]azepin-4-yl]-amine], the IC50 came to 0.94 µM.
As for `O=S1(=O)CCCCN1c1nc2c(c(Nc3ccc(C(F)(F)F)cc3)n1)CCN(c1ncccc1C(F)(F)F)CC2` [Example 212, 2-(1,1-Dioxido-1,2-thiazinan-2-yl)-N-[4-(trifluoromethyl)phenyl]-7-[3-(trifluoromethyl)pyridin-2-yl]-6,7,8,9-tetrahydro-5H-pyrimido[4,5-d]azepin-4-amine trifluoroacetic acid salt], the IC50 was 0.22 µM.
Consider `CCS(=O)(=O)c1cccnc1N1CCc2nc(C(C)C)nc(Nc3ccc(C(C)(C)C)cc3)c2CC1` [Example 296, N-[4-(1,1-Dimethylethyl)phenyl]-7-[3-(ethylsulfonyl)pyridin-2-yl]-2-(1-methylethyl)-6,7,8,9-tetrahydro-5H-pyrimido[4,5-d]azepin-4-amine], for which the IC50 turned out to be 0.12 µM.
Take `Cc1nc2ccccc2nc1N1CCc2ncnc(Nc3ccc(C(C)(C)C)cc3)c2CC1` [Example 32, (4-tert-Butyl-phenyl)-[7-(3-methyl-quinoxalin-2-yl)-6,7,8,9-tetrahydro-5H-pyrimido[4,5-d]azepin-4-yl]-amine]: the IC50 is 0.013 µM.
Consider `FC(F)(F)c1ccc(Nc2nc(-c3ccccc3)nc3c2CCN(c2ncccc2C(F)(F)F)CC3)cc1` [Example 7, [2-Phenyl-7-(3-trifluoromethyl-pyridin-2-yl)-6,7,8,9-tetrahydro-5H-pyrimido[4,5-d]azepin-4-yl]-(4-trifluoromethyl-phenyl)-amine], for which the IC50 worked out at 0.14 µM.
In the case of `NS(=O)(=O)c1cccnc1N1CCc2ncnc(Nc3ccc(C(F)(F)F)cc3)c2CC1` [Example 302, 2-(4-{[4-(Trifluoromethyl)phenyl]amino}-5,6,7,8,9-tetrahydro-7H-pyrimido[4,5-d]azepin-7-yl)pyridine-3-sulfonamide], the IC50 was 9.46 µM.
As to `Cc1cccc(Nc2nc3c(c(Nc4ccc(C(F)(F)F)cc4)n2)CCN(c2ncccc2C(F)(F)F)CC3)c1` [Example 279, N^2-(3-Methylphenyl)-N^4-[4-(trifluoromethyl)phenyl]-7-[3-(trifluoromethyl)pyridin-2-yl]-6,7,8,9-tetrahydro-5H-pyrimido[4,5-d]azepine-2,4-diamine trifluoroacetic acid salt], the IC50 was > 6.67 µM.
In the case of `COCCN(C)c1nc2c(c(Nc3ccc(C(C)(C)C)cc3)n1)CCN(c1ncccc1C(F)(F)F)CC2` [Example 257, N^4-[4-(1,1-Dimethylethyl)phenyl]-N^2-methyl-N^2-[2-(methyloxy)ethyl]-7-[3-(trifluoromethyl)pyridin-2-yl]-6,7,8,9-tetrahydro-5H-pyrimido[4,5-d]azepine-2,4-diamine], the IC50 stood at 0.02 µM.
For `CN(C)c1nc2c(c(Nc3ccc(C(C)(C)C)cc3)n1)CCN(c1ncccc1C(F)(F)F)CC2` [Example 48, N^4-(4-tert-Butyl-phenyl)-N^2,N^2-dimethyl-7-(3-trifluoromethyl-pyridin-2-yl)-6,7,8,9-tetrahydro-5H-pyrimido[4,5-d]azepine-2,4-diamine] the value was 0.074 µM; for `O=S(=O)(c1ccc(Nc2nc(Sc3ccccc3)nc3c2CCN(c2ncccc2C(F)(F)F)CC3)cc1)C(F)(F)F` [Example 350, 2-(Phenylsulfanyl)-7-[3-(trifluoromethyl)pyridin-2-yl]-N-{4-[(trifluoromethyl)sulfonyl]phenyl}-6,7,8,9-tetrahydro-5H-pyrimido[4,5-d]azepin-4-amine], 0.03 µM; for `O=S(=O)(c1ccc(Nc2nc(OC3CCOCC3)nc3c2CCN(c2ncccc2C(F)(F)F)CC3)cc1)C(F)(F)F` [Example 322, 2-(Tetrahydro-2H-pyran-4-yloxy)-7-[3-(trifluoromethyl)pyridin-2-yl]-N-{4-[(trifluoromethyl)sulfonyl]phenyl}-6,7,8,9-tetrahydro-5H-pyrimido[4,5-d]azepin-4-amine], 0.01 µM.
Turning to `CC(C)c1nc2c(c(Nc3ccc(C(F)(F)F)cc3)n1)CCN(c1ccccc1[N+](=O)[O-])CC2` [Example 85, [2-Isopropyl-7-(2-nitro-phenyl)-6,7,8,9-tetrahydro-5H-pyrimido[4,5-d]azepin-4-yl]-(4-trifluoromethyl-phenyl)-amine], the IC50 is > 6.7 µM.
For `NC(=O)c1cccnc1N1CCc2ncnc(Nc3ccc(C(F)(F)F)cc3)c2CC1` [Example 294, 2-(4-{[4-(Trifluoromethyl)phenyl]amino}-5,6,8,9-tetrahydro-7H-pyrimido[4,5-d]azepin-7-yl)pyridine-3-carboxamide trifluoroacetic acid salt], the IC50 was 2.94 µM.
In the case of `FC(F)(F)c1ccc(Nc2nc(Nc3ccccc3)nc3c2CCN(c2ncccc2C(F)(F)F)CC3)cc1` [Example 54, N^2-Phenyl-N^4-(4-trifluoromethyl-phenyl)-7-(3-trifluoromethyl-pyridin-2-yl)-6,7,8,9-tetrahydro-5H-pyrimido[4,5-d]azepine-2,4-diamine], the IC50 came to 0.23 µM.
As to `Cc1cc(C(F)(F)F)ccc1Nc1nc(SC(C)C)nc2c1CCN(c1ncccc1C(F)(F)F)CC2` [Example 366, 2-[(1-Methylethyl)sulfanyl]-N-[2-methyl-4-(trifluoromethyl)phenyl]-7-[3-(trifluoromethyl)pyridin-2-yl]-6,7,8,9-tetrahydro-5H-pyrimido[4,5-d]azepin-4-amine], the IC50 worked out at 0.13 µM.
For `FC(F)(F)c1ccc(Nc2nc(N3CCCCC3)nc3c2CCN(c2ncccc2C(F)(F)F)CC3)nc1Cl` [Example 390, (6-Chloro-5-trifluoromethyl-pyridin-2-yl)-[2-piperidin-1-yl-7-(3-trifluoromethyl-pyridin-2-yl)-6,7,8,9-tetrahydro-5H-pyrimido[4,5-d]azepin-4-yl]-amine] the value was 0.09 µM; for `CC(O)(c1ccc(Nc2nc(N3CCCCC3)nc3c2CCN(c2ncccc2C(F)(F)F)CC3)cc1)C(F)(F)F` (centres unmarked) [Example 180, 1,1,1-Trifluoro-2-[4-({2-piperidin-1-yl-7-[3-(trifluoromethyl)pyridin-2-yl]-6,7,8,9-tetrahydro-5H-pyrimido[4,5-d]azepin-4-yl}amino)phenyl]propan-2-ol], > 6.67 µM; for `FC(F)(F)c1ccc(Nc2nc(-c3ccncc3)nc3c2CCN(c2ncccc2C(F)(F)F)CC3)cn1` [Example 170, 2-Pyridin-4-yl-7-[3-(trifluoromethyl)pyridin-2-yl]-N-[6-(trifluoromethyl)pyridin-3-yl]-6,7,8,9-tetrahydro-5H-pyrimido[4,5-d]azepin-4-amine trifluoroacetic acid salt], 0.06 µM.
With `CC(C)(C)c1ccc(Nc2nc(N3CCCC3)nc3c2CCN(c2ncccc2C(F)(F)F)CC3)cc1` [Example 248, N-[4-(1,1-Dimethylethyl)phenyl]-2-pyrrolidin-1-yl-7-[3-(trifluoromethyl)pyridin-2-yl]-6,7,8,9-tetrahydro-5H-pyrimido[4,5-d]azepin-4-amine], the IC50 came out at 0.53 µM.
With `O=S(=O)(NC1CC1)c1cccnc1N1CCc2nc(N3CCCCC3)nc(Nc3ccc(C(F)(F)F)cc3)c2CC1` [Example 299, N-Cyclopropyl-2-(2-piperidin-1-yl-4-{[4-(trifluoromethyl)phenyl]amino}-5,6,8,9-tetrahydro-7H-pyrimido[4,5-d]azepin-7-yl)pyridine-3-sulfonamide], the IC50 was 3 µM.

The values above are taken from patent publication US9422293B2 (priority 2006, dated 2016).
